Laboratory results: patent US20150044193A1, “COMPOSITIONS AND METHODS FOR THE TREATMENT OF ALTERED a-SYNUCLEIN FUNCTION” (Neuraltus Pharmaceuticals, Inc., priority 2008, published 2015)
Entries after “also recorded” stand apart in the source; their conditions may differ.

Legend:
α-synuclein [1] = experiment: Western blot of α-synuclein in differentiated SH-SY5Y cells exposed to CBE; type: cell-based, human
Method: (§1) The treatment paradigm is depicted in FIG. 1. SH-SY5Y cells were grown in Dulbecco's modified Eagle medium with 10% fetal calf serum, 2 mM glutamine, and were subcultured 1:5 with TrypLE (GIBCO/Invitrogen; Carlsbad, Calif.) using standard tissue culture techniques. The cells were differentiated in neurobasal media supplemented with B-27 and 40 μM retinoic acid for 7 days (Pahlman et al., 1984). Cells were exposed to CBE at doses of 0, 12.5, 25, 50, 100 or 200 μM in dimethyl sulfoxide (DMSO; Sigma Chemicals; St. Louis, Mo.) for 48 h at 37° C. At this time, cultures were washed with HBSS and trypsinized for 10 min followed by centrifugation at 1,000×g for 10 min to pellet cells. Media was removed, and cells were lysed in 10 mM Tris/1 mM EDTA/protease inhibitor cocktail (1:1000; Sigma) by sonication. Samples were centrifuged at 1,000×g for 10 min; the supernatant fraction was decanted from particulate fraction. Following determination of protein concentration using the BCA protein assay (Pierce Chemicals, Rockford, Ill.), samples were frozen until used for Western blot analysis experiments.
Fractions from ventral mesencephalon separated by the centrifugation were utilized for immunoblotting experiments. Following homogenization in 10 mM Tris/1 mM EDTA/protease inhibitor cocktail (1:1000; Sigma, St. Louis, Mo.) by sonication, samples were centrifuged at 1,000×g for […]. The supernatant fraction (S1) was decanted and stored, and the pellet fraction containing nuclei and large membrane fragments were reconstituted in homogenization buffer (P1 fraction). The protein concentration was measured. After proteins were separated by SDS-PAGE and transferred to nitrocellulose, the blots were blocked and incubated overnight at 4° C. with anti-α-synuclein (Signet; Novus Biologicals, Littleton, Colo.; Abcam, Cambridge, Mass.; Santa Cruz Biotechnology, Santa Cruz, Calif.) or anti-GAPDH (Sigma). Appropriate secondary antibodies conjugated to HRP were applied, and blots were incubated with a chemiluminescent substrate (Pierce) and exposed to Kodak X-Omat Blue Film (Kodak, Rochester, N.Y.). Mouse or rabbit IgG was used in lieu of the primary antibody to ensure specificity in control experiments.
To test determine if the inhibition of GCase would elicit changes in cellular α-synuclein level, the protein levels were evaluated by using Western blot analysis in non-differentiated SH-SY5Y cells and cells differentiated to the neuronal phenotype, at 48 h following exposure to CBE. […] In order to determine whether increased levels of the protein were due to enhanced transcription, RT-PCR was performed to measure transcript levels in SH-SY5Y treated with CBE. […]

α-synuclein [2] = experiment: Western blot of α-synuclein in non-differentiated SH-SY5Y cells exposed to CBE; type: cell-based, human; conditions: non-differentiated neuroblastoma cells, 48 h exposure
Method: as §1
To test determine if the inhibition of GCase would elicit changes in cellular α-synuclein level, the protein levels were evaluated by using Western blot analysis in non-differentiated SH-SY5Y cells and cells differentiated to the neuronal phenotype, at 48 h following exposure to CBE. […]

α-synuclein mRNA [3] = experiment: RT-PCR of α-synuclein mRNA in SH-SY5Y cells treated with CBE; type: cell-based, human
Method: […] The cDNAs were prepared by reverse transcription (Superscript III; Invitrogen). PCR was performed using the ABI PRISM 7000 Sequence Detection System and primers. The cycle number at which each PCR reaction reached a significant threshold (CT) during the log phase of the amplification was used as a relative measure of transcript expression. The CT of the α-synuclein gene was calibrated against that of the reference gene […].
To test determine if the inhibition of GCase would elicit changes in cellular α-synuclein level, the protein levels were evaluated by using Western blot analysis in non-differentiated SH-SY5Y cells and cells differentiated to the neuronal phenotype, at 48 h following exposure to CBE. […] In order to determine whether increased levels of the protein were due to enhanced transcription, RT-PCR was performed to measure transcript levels in SH-SY5Y treated with CBE. […] These findings indicate that increased α-synuclein levels observed following CBE exposure are not due to enhanced expression (FIG. 3b).

SH-SY5Y cells = experiment: Overt toxicity in SH-SY5Y cells treated with GCase inhibitor; type: cell-based, human; conditions: SH-SY5Y cells treated with CBE
α-synuclein [4] = experiment: Western blot of α-synuclein in ventral mesencephalon fractions of CBE-treated mice; type: in vivo, C57BL/6 mice; conditions: single i.p. 200 mg/kg, 48 h
Method: (§2) The administration paradigm is depicted in FIG. 2. Mice (C57BL/6) were maintained on a 12 h light-dark cycle and given food and drinking water ad libitum. All animal procedures and care methods were approved by the Institutional Animal Care and Usage Committee. In experiments to test the effects of CBE on α-synuclein protein, C57BL/6 male mice, aged 8 weeks, were used as previously described with some modifications (Kanfer et al., 1975, Adachi and Volk, 1977, Kanfer et al., 1982). Mice (n=8/group) received a single i. p. injection of 200 mg/kg CBE (Sigma) in DMSO or the vehicle alone and killed 2 days after injection. For Western blot analyses, brains were removed, dissected on ice and frozen on dry ice until needed (Manning-Bog et al., 2002, Purisai et al., 2005). For experiments utilizing immunohistochemistry, brains were immersion fixed in 4% paraformaldehyde and successively cryoprotected in 10 and 30% sucrose over the course of 72 h (Manning-Bog et al., 2002, Manning-Bog et al., 2003). Brains were sectioned at 40-μm intervals and stored in cryopreservative solution at −20° C. until needed.
Fractions from ventral mesencephalon separated by the centrifugation were utilized for immunoblotting experiments. Following homogenization in 10 mM Tris/1 mM EDTA/protease inhibitor cocktail (1:1000; Sigma, St. Louis, Mo.) by sonication, samples were centrifuged at 1,000×g for […]. The supernatant fraction (S1) was decanted and stored, and the pellet fraction containing nuclei and large membrane fragments were reconstituted in homogenization buffer (P1 fraction). The protein concentration was measured. […]
C57BL/6 mice were exposed to a single injection of CBE and assessed for changes in α-synuclein at 48 h to determine whether diminished GCase activity is associated with alterations in the protein in vivo, specifically within the substantia nigra. […] In tissue homogenates from ventral mesencephalon of CBE vs. DMSO (vehicle)-treated mice, α-synuclein immunoreactivity was assessed by Western blot analysis.

α-synuclein [5] = experiment: α-synuclein immunohistochemistry in brain of CBE-treated mice; type: in vivo, C57BL/6 mice; conditions: single 200 mg/kg, 48 h
Method: as §2, with “needed. […]” for “needed.”
The effects of CBE exposure on α-synuclein within the ventral mesencephalon were also assessed histologically with immunohistochemistry. […]

GFAP = GFAP immunohistochemistry (astroglial activation) in brain of CBE-treated mice; type: in vivo, C57BL/6 mice; conditions: single 200 mg/kg, 48 h
Method: as §2, with “Brains were sectioned at 40-μm intervals and stored in cryopreservative solution at −20° C. until needed.” left out
Substantia nigra-containing tissue sections were immunostained using an antibody for the astrocytic marker, glial fibrillary acidic protein (GFAP). […] Alternatively, it may be that upregulation is responsible for increased α-synuclein levels in astrocytes. α-synuclein has been detected in cultured human astrocytes, and its expression level is responsive to cytokine exposure (Tanji et al., 2001).

α-synuclein [6] = experiment: α-synuclein in substantia nigra of aged mice treated sub-chronically with CBE; type: in vivo; conditions: sub-chronic CBE vs. DMSO
Description: It is likely that sustained glucocerebrosidase inhibition promotes increased levels of the α-synuclein expression protein.

nigral neurons = experiment: Silver grain accumulation (degenerating neurons) in substantia nigra of CBE-treated mice; type: in vivo; conditions: CBE- vs. DMSO-treated mice
α-synuclein mRNA [7] = conditions: astroglial cultures challenged with CBE; cited from earlier work

Compound: O[C@H]1[C@H](O)[C@@H](O)[C@@H]2O[C@@H]2[C@@H]1O (racemic) [CBE, Conduritol B epoxide]
- immunoreactivity for α-synuclein in tissue culture (α-synuclein [1]; CBE-exposed neuroblastoma cells differentiated to neuronal phenotype): increased immunoreactivity for α-synuclein
- CBE concentrations at which increased α-synuclein levels were seen (α-synuclein [1]; differentiated SH-SY5Y cells, 48 h, Western blot): 50 to 200 µM
- dose at which increased α-synuclein protein levels peak (α-synuclein [1]; differentiated SH-SY5Y cells, 48 h, doses 0-200 μM tested): 50 µM
- α-synuclein protein levels (Western blot) (α-synuclein [1]; differentiated SH-SY5Y cells, 48 h exposure, CBE vs. vehicle): increased levels of α-synuclein protein were observed
- α-synuclein protein levels (Western blot) (α-synuclein [2]): No change in α-synuclein was detected
- α-synuclein gene expression (RT-PCR) (α-synuclein mRNA [3]; SH-SY5Y, any dose tested, 24 h following CBE treatment): No change in α-synuclein gene expression was detected
- α-synuclein transcription (mRNA, RT-PCR) (α-synuclein mRNA [3]; differentiated SH-SY5Y, increasing concentrations of CBE, (FIG. 3B legend)): No change in α-synuclein transcription was detected
- overt toxicity within cells (SH-SY5Y cells): no overt toxicity
- higher molecular forms of α-synuclein (SDS-stable aggregates) (α-synuclein [4]): No immunoreactivity for higher molecular forms of α-synuclein
- α-synuclein levels in P1 (particulate) fraction, monomeric 19 kDa band (α-synuclein [4]; CBE vs. DMSO, 200 mg/kg): Denser α-synuclein-positive bands; also recorded: levels of α-synuclein were increased in the particulate fraction; also recorded: an increase in α-synuclein levels
- α-synuclein levels in S1 (supernatant) fraction (α-synuclein [4]; CBE vs. DMSO, 200 mg/kg): no alteration; also recorded: no change
- α-synuclein in other brain regions (cortex, hippocampus) (α-synuclein [5]): No obvious changes in α-synuclein; also recorded: No alteration in protein levels
- α-synuclein immunoreactivity in substantia nigra neurons (α-synuclein [5]; CBE vs. vehicle): robust immunoreactivity was observed within the cell bodies; also recorded: enhanced immunoreactivity for α-synuclein was detected within the cytoplasm and cell nuclei; also recorded: accumulation of the protein within neuronal cell bodies; also recorded: apparent increase; also recorded: accumulation of α-synuclein (FITC) within cell bodies and processes
- α-synuclein within astrocytes of substantia nigra (dual-label immunofluorescence) (GFAP): enhanced α-synuclein was also detected within activated astrocytes; also recorded: colocalization of α-synuclein immunoreactivity was observed within astrocytes
- GFAP immunoreactivity / astroglial activation in substantia nigra (GFAP; CBE vs. vehicle): astroglial activation, as observed by GFAP immunoreactivity, was apparent; also recorded: apparent increase; also recorded: Glial activation was robust
- α-synuclein expression within substantia nigra (α-synuclein [6]): Increased α-synuclein expression
- silver grains in nigral neurons (degenerating neurons) (nigral neurons): Accumulation of silver grains in nigral neurons
- expression of α-synuclein mRNA (α-synuclein mRNA [7]): enhanced expression of α-synuclein mRNA
